Measured values from patent publication US11116735B2, “Use of substituted benzylideneguanidine derivatives as synergists for polymyxin antibiotics” (GUANGZHOU INSIGHTER BIOTECHNOLOGY CO., LTD., priority 2015, dated 2021).
Where “and” joins values, the source holds several entries; their conditions need not be identical. Identical values can stand only once.

Legend:
E. coli 3Y-9 = test: MIC by doubling dilution, colistin sulfate-susceptible E. coli 3Y-9; assay type: cell-based, Escherichia coli
E. coli 5W-7 = test: MIC by doubling dilution, colistin sulfate-susceptible E. coli 5W-7; assay type: cell-based, Escherichia coli
E. coli 3B-24 = test: MIC by doubling dilution, colistin sulfate-susceptible E. coli 3B-24; assay type: cell-based, Escherichia coli
weanling piglets [1] = test: Synergy of derivatives and colistin sulfate in the feed for weanling piglets; assay type: in vivo, Duroc×Landrace×Large crossbred lean weanling piglets; settings: creep feed with 20 ppm colistin sulfate and 150 ppm derivative (hydrochloride), ten days
Experimental: (§1) 90 28-day-aged Duroc×Landrace×Large crossbred lean weanling piglets similar in weight were divided into 9 groups, 10 piglets in each group. For each group, colistin sulfate and/or various substituted benzylideneguanidine derivatives were added into the antibiotic-free creep feed. The piglets were given ad libitum access to feed and water during the experiment. Weight gain, feed efficiency and diarrhea rate of each group within ten days were recorded.

weanling piglets [2] = test: Synergy of compound 3 and colistin sulfate in the feed for weanling piglets; assay type: in vivo, Duroc×Landrace×Large crossbred lean weanling piglets; settings: for Average daily weight gain / Diarrhea rate / Feed conversion ratio: weanling piglets, ten days
Experimental: as §1, with “120” for “90”, “12” for “9”, “compound 3” for “various substituted benzylideneguanidine derivatives”

weanling piglets [3] = test: Compound 3 in various dosages and colistin sulfate in the feed for weanling piglets; assay type: in vivo, Duroc×Landrace×Large crossbred lean weanling piglets; settings: for Average daily weight gain / Diarrhea rate / Feed conversion ratio: ten days
Experimental: as §1, with “dosages of compound 3” for “substituted benzylideneguanidine derivatives”

cherry valley ducks = test: Combined application of compound 3 and colistin sulfate in duck feed; assay type: in vivo; settings: 21-day experiment
Experimental: 800 1-day-aged cherry valley ducks were divided into 4 groups according to Table 10, 4 parallels in each group and 50 ducks in each parallel. For each group, colistin sulfate and/or compound 3 were added into the feed. The ducks were kept in cages and given ad libitum access to feed and water during a 21-day experiment. Synergy of compound 3 and colistin sulfate on the ducks in the weight gain and feed efficiency was observed from the result (see Table 11).

[4] = tested on: various colistin sulfate-resistant Gram-negative bacteria; test: MIC by doubling dilution, summary over resistant species; settings: compound 3 alone (hydrochloride)
Experimental: (§2) The compound 3 in this embodiment was in the form of a hydrochloride, i.e., the experiments were carried out with a hydrochloride of compound 3.
(§3) In vitro minimum inhibitory concentrations of colistin sulfate against the strains where the cultures respectively comprised various concentrations of compound 3 were also measured.

E. coli 2G-7 = test: MIC by doubling dilution, colistin sulfate-resistant E. coli 2G-7
Experimental: (§4) In vitro minimum inhibitory concentrations of colistin sulfate against the strains where the cultures respectively comprised 20.0 ppm of the substituted benzylideneguanidine derivatives were also measured.

E. coli 4D-6 = test: MIC by doubling dilution, colistin sulfate-resistant E. coli 4D-6
Experimental: as §4

E. coli 3H-4 = test: MIC by doubling dilution, colistin sulfate-resistant E. coli 3H-4
Experimental: as §4

Shigella sp. 2D89 = test: MIC, resistance reversal by various concentrations of compound 3, Shigella sp. 2D89
Experimental: as §2, §3

P. aeruginosa E543 = test: MIC, resistance reversal by various concentrations of compound 3, P. aeruginosa E543
Experimental: as §2, §3

Salmonella sp. 3087 = test: MIC, resistance reversal by various concentrations of compound 3, Salmonella sp. 3087
Experimental: as §2, §3

Klebsiella sp. 4125 = test: MIC, resistance reversal by various concentrations of compound 3, Klebsiella sp. 4125
Experimental: as §2, §3

[5] = 20 ppm colistin sulfate and 150 ppm compound 3 in creep feed (Test, groups 10-12)
[6] = 150 ppm in creep feed, no colistin sulfate (Control 2, groups 7-9)
[7] = 20 ppm colistin sulfate + 10 ppm compound 3 in creep feed (Test 1)
[8] = 20 ppm colistin sulfate + 25 ppm compound 3 in creep feed (Test 2)
[9] = 20 ppm colistin sulfate + 50 ppm compound 3 in creep feed (Test 3)
[10] = 20 ppm colistin sulfate + 100 ppm compound 3 in creep feed (Test 4)
[11] = 20 ppm colistin sulfate + 200 ppm compound 3 in creep feed (Test 5)
[12] = 20 ppm colistin sulfate + 500 ppm compound 3 in creep feed (Test 6)
[13] = only 200 ppm compound 3 in creep feed, no colistin sulfate
[14] = 20 ppm colistin sulfate and 50 ppm compound 3 in feed (Test)
[15] = colistin sulfate with 0 ppm compound 3, or compound 3 (hydrochloride) in the absence of colistin sulfate

Q: Which “In vitro minimum inhibitory concentration (MIC) of the substance alone” value (E. coli 3Y-9; E. coli 3Y-9, colistin sulfate-susceptible, substance alone, derivatives as hydrochlorides) does the source give for `CC(C)Oc1ccc(C=NN=C(N)NN=Cc2ccc(OC(C)C)cc2)cc1` [Compound 3] here?
A: >800 ppm

Q: And the “In vitro MIC of colistin sulfate in the presence of the substituted benzylideneguanidine derivative” value (E. coli 3Y-9; E. coli 3Y-9, culture comprised 20.0 ppm of the derivative (hydrochloride), colistin sulfate serially diluted)?
A: 0.50 ppm

Q: And the “In vitro minimum inhibitory concentration (MIC) of the substance alone” value (E. coli 5W-7; E. coli 5W-7, colistin sulfate-susceptible, substance alone, derivatives as hydrochlorides)?
A: >800 ppm

Q: And the “In vitro MIC of colistin sulfate in the presence of the substituted benzylideneguanidine derivative” value (E. coli 5W-7; E. coli 5W-7, culture comprised 20.0 ppm of the derivative (hydrochloride), colistin sulfate serially diluted)?
A: 0.25 ppm

Q: And the “In vitro minimum inhibitory concentration (MIC) of the substance alone” value (E. coli 3B-24; E. coli 3B-24, colistin sulfate-susceptible, substance alone, derivatives as hydrochlorides)?
A: >800 ppm

Q: What about the “In vitro MIC of colistin sulfate in the presence of the substituted benzylideneguanidine derivative” value (E. coli 3B-24; E. coli 3B-24, culture comprised 20.0 ppm of the derivative (hydrochloride), colistin sulfate serially diluted) of the same molecule?
A: 0.50 ppm

Q: And the “Average daily weight gain” value (weanling piglets [1])?
A: 258 g

Q: And the Diarrhea rate (weanling piglets [1])?
A: 8%

Q: And the Feed conversion ratio (weanling piglets [1])?
A: 1.441

Q: What about the “Reduction of the diarrhea rate” value (weanling piglets [2]; groups 10, 11 and 12: colistin sulfate added together with compound 3) of the same molecule?
A: 20%

Q: And the “Average daily weight gain” value (weanling piglets [2]; [5])?
A: 254 g and 248 g and 251 g

Q: And the Diarrhea rate (weanling piglets [2]; [5])?
A: 12% and 9% and 10%

Q: And the Feed conversion ratio (weanling piglets [2]; [5])?
A: 1.435 and 1.427 and 1.453

Q: And the “Average daily weight gain” value (weanling piglets [2]; [6])?
A: 200 g and 205 g and 211 g

Q: And the Diarrhea rate (weanling piglets [2]; [6])?
A: 36% and 38% and 34%

Q: And the Feed conversion ratio (weanling piglets [2]; [6])?
A: 1.666 and 1.639 and 1.647

Q: And the “Average daily weight gain” value (weanling piglets [3]; [7])?
A: 215 g

Q: What about the Diarrhea rate (weanling piglets [3]; [7]) of the same molecule?
A: 30%

Q: What about the Feed conversion ratio (weanling piglets [3]; [7]) of the same molecule?
A: 1.632

Q: And the “Average daily weight gain” value (weanling piglets [3]; [8])?
A: 226 g

Q: What about the Diarrhea rate (weanling piglets [3]; [8]) of the same molecule?
A: 26%

Q: And the Feed conversion ratio (weanling piglets [3]; [8])?
A: 1.578

Q: What about the “Average daily weight gain” value (weanling piglets [3]; [9]) of the same molecule?
A: 237 g

Q: And the Diarrhea rate (weanling piglets [3]; [9])?
A: 20%

Q: And the Feed conversion ratio (weanling piglets [3]; [9])?
A: 1.532

Q: What about the “Average daily weight gain” value (weanling piglets [3]; [10]) of the same molecule?
A: 248 g

Q: And the Diarrhea rate (weanling piglets [3]; [10])?
A: 16%

Q: What about the Feed conversion ratio (weanling piglets [3]; [10]) of the same molecule?
A: 1.499

Q: What about the “Average daily weight gain” value (weanling piglets [3]; [11]) of the same molecule?
A: 255 g

Q: And the Diarrhea rate (weanling piglets [3]; [11])?
A: 6%

Q: What about the Feed conversion ratio (weanling piglets [3]; [11]) of the same molecule?
A: 1.417

Q: What about the “Average daily weight gain” value (weanling piglets [3]; [12]) of the same molecule?
A: 259 g

Q: And the Diarrhea rate (weanling piglets [3]; [12])?
A: 3%

Q: And the Feed conversion ratio (weanling piglets [3]; [12])?
A: 1.428

Q: What about the “Dosage dependence of diarrhea rate and productivity” value (weanling piglets [3]; colistin sulfate added together with compound 3, weanling piglets) of the same molecule?
A: a higher dosage of compound 3 led to a better effect

Q: What about the “Average daily weight gain” value (weanling piglets [3]; [13]) of the same molecule?
A: 228 g

Q: And the Diarrhea rate (weanling piglets [3]; [13])?
A: 29%

Q: What about the Feed conversion ratio (weanling piglets [3]; [13]) of the same molecule?
A: 1.596

Q: What about the “Average daily weight gain” value (cherry valley ducks; [14]) of the same molecule?
A: 55.6 g

Q: What about the Feed conversion ratio (cherry valley ducks; [14]) of the same molecule?
A: 1.817

Q: What about the Survival rate (cherry valley ducks; [14]) of the same molecule?
A: 100%

Q: And the “Synergy with colistin sulfate in weight gain and feed efficiency” value (cherry valley ducks)?
A: Synergy

Q: And the “Average daily weight gain” value (cherry valley ducks; 100 ppm compound 3 in feed)?
A: 50.5 g

Q: And the Feed conversion ratio (cherry valley ducks; 100 ppm compound 3 in feed)?
A: 1.926

Q: And the Survival rate (cherry valley ducks; 100 ppm compound 3 in feed)?
A: 100%

Q: And the “Inhibitory activity on the tested strains” value [4]?
A: did not exhibit inhibitory activity

Q: What about the “In vitro minimum inhibitory concentration (MIC) of the substance alone” value (E. coli 2G-7; E. coli 2G-7, colistin sulfate-resistant, substance alone, derivatives as hydrochlorides) of the same molecule?
A: >800 ppm

Q: And the “In vitro MIC of colistin sulfate in the presence of the substituted benzylideneguanidine derivative” value (E. coli 2G-7; E. coli 2G-7, resistant, culture comprised 20.0 ppm of the derivative (hydrochloride))?
A: 1.0 ppm

Q: And the “In vitro minimum inhibitory concentration (MIC) of the substance alone” value (E. coli 4D-6; E. coli 4D-6, colistin sulfate-resistant, substance alone, derivatives as hydrochlorides)?
A: >800 ppm

Q: What about the “In vitro MIC of colistin sulfate in the presence of the substituted benzylideneguanidine derivative” value (E. coli 4D-6; E. coli 4D-6, resistant, culture comprised 20.0 ppm of the derivative (hydrochloride)) of the same molecule?
A: 2.0 ppm

Q: What about the “In vitro minimum inhibitory concentration (MIC) of the substance alone” value (E. coli 3H-4; E. coli 3H-4, colistin sulfate-resistant, substance alone, derivatives as hydrochlorides) of the same molecule?
A: >800 ppm

Q: What about the “In vitro MIC of colistin sulfate in the presence of the substituted benzylideneguanidine derivative” value (E. coli 3H-4; E. coli 3H-4, resistant, culture comprised 20.0 ppm of the derivative (hydrochloride)) of the same molecule?
A: 0.5 ppm

Q: What about the “In vitro MIC of colistin sulfate in the presence of compound 3” value (“In vitro MIC … of compound 3” for short) (Shigella sp. 2D89; 5 ppm compound 3) of the same molecule?
A: 16.00 ppm

Q: And the “In vitro MIC … of compound 3” value (Shigella sp. 2D89; 10 ppm compound 3)?
A: 2.00 ppm

Q: And the “In vitro MIC … of compound 3” value (Shigella sp. 2D89; 20 ppm compound 3)?
A: 1.00 ppm

Q: And the “In vitro MIC … of compound 3” value (Shigella sp. 2D89; 40 ppm compound 3)?
A: 0.25 ppm

Q: And the “In vitro MIC … of compound 3” value (Shigella sp. 2D89; 80 ppm compound 3)?
A: 0.25 ppm

Q: And the “In vitro MIC of the substance alone” value (Shigella sp. 2D89; [15])?
A: >800 ppm

Q: And the “In vitro MIC … of compound 3” value (P. aeruginosa E543; 5 ppm compound 3)?
A: 32.00 ppm

Q: What about the “In vitro MIC … of compound 3” value (P. aeruginosa E543; 10 ppm compound 3) of the same molecule?
A: 8.00 ppm

Q: What about the “In vitro MIC … of compound 3” value (P. aeruginosa E543; 20 ppm compound 3) of the same molecule?
A: 2.00 ppm

Q: What about the “In vitro MIC … of compound 3” value (P. aeruginosa E543; 40 ppm compound 3) of the same molecule?
A: 0.50 ppm

Q: And the “In vitro MIC … of compound 3” value (P. aeruginosa E543; 80 ppm compound 3)?
A: 0.50 ppm

Q: And the “In vitro MIC of the substance alone” value (P. aeruginosa E543; [15])?
A: >800 ppm

Q: What about the “In vitro MIC … of compound 3” value (Salmonella sp. 3087; 5 ppm compound 3) of the same molecule?
A: 64.00 ppm

Q: What about the “In vitro MIC … of compound 3” value (Salmonella sp. 3087; 10 ppm compound 3) of the same molecule?
A: 16.00 ppm

Q: And the “In vitro MIC … of compound 3” value (Salmonella sp. 3087; 20 ppm compound 3)?
A: 4.00 ppm

Q: What about the “In vitro MIC … of compound 3” value (Salmonella sp. 3087; 40 ppm compound 3) of the same molecule?
A: 2.00 ppm

Q: What about the “In vitro MIC … of compound 3” value (Salmonella sp. 3087; 80 ppm compound 3) of the same molecule?
A: 1.00 ppm

Q: What about the “In vitro MIC of the substance alone” value (Salmonella sp. 3087; [15]) of the same molecule?
A: >800 ppm

Q: And the “In vitro MIC … of compound 3” value (Klebsiella sp. 4125; 5 ppm compound 3)?
A: 32.00 ppm

Q: What about the “In vitro MIC … of compound 3” value (Klebsiella sp. 4125; 10 ppm compound 3) of the same molecule?
A: 8.00 ppm

Q: What about the “In vitro MIC … of compound 3” value (Klebsiella sp. 4125; 20 ppm compound 3) of the same molecule?
A: 2.00 ppm

Q: And the “In vitro MIC … of compound 3” value (Klebsiella sp. 4125; 40 ppm compound 3)?
A: 1.00 ppm

Q: What about the “In vitro MIC … of compound 3” value (Klebsiella sp. 4125; 80 ppm compound 3) of the same molecule?
A: 1.00 ppm

Q: And the “In vitro MIC of the substance alone” value (Klebsiella sp. 4125; [15])?
A: >800 ppm
